ChEMBL document CHEMBL1201862, “PubChem BioAssay data set” (2004)
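How tested: cells in 96-well plates exposed to compound for 48 hours at five concentrations. GI50 marks 50% less growth.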 The source made the active and inactive calls. Rule as the data show it: active = GI50 up to about 1.1 µM and inactive = higher.

Key:
Assay in all cases: NCI tumour cell line growth inhibition, 48 h
[1] = system: COLO 205
[2] = system: HL-60
[3] = system: HT-29
[4] = system: K562
[5] = system: MOLT-4
[6] = system: Malme-3M
[7] = system: NCI-H226
[8] = system: NCI-H460
[9] = system: NCI-H522
[10] = system: OVCAR-8
[11] = system: RPMI-8226
[12] = system: RXF 393
[13] = system: SF-268
[14] = system: SF-539
[15] = system: SW-620
[16] = system: UO-31
[17] = system: SK-MEL-5
[18] = system: SR

SMILES | GI50 [1] | GI50 [2] | GI50 [3] | GI50 [4] | GI50 [5] | GI50 [6] | GI50 [7] | GI50 [8] | GI50 [9] | GI50 [10] | GI50 [11] | GI50 [12] | GI50 [13] | GI50 [14] | GI50 [15] | GI50 [16] | GI50 [17] | GI50 [18]
CCCCCN(CCCCC)C(=O)[C@@H](CCC(=O)O)NC(=O)c1cc2ccccc2[nH]1 | 30.9 µM (inactive) | 24.1 µM (inactive) | 46.6 µM (inactive) | 36.5 µM (inactive) | 21.5 µM (inactive) | 35.4 µM (inactive) | 37.3 µM (inactive) | 34.4 µM (inactive) | 13.5 µM (inactive) | 52.8 µM (inactive) | 16 µM (inactive) | 1.99 µM (inactive) | 24.5 µM (inactive) | 22.3 µM (inactive) | 63.1 µM (inactive) | 21.4 µM (inactive) |  | 
O=C1CNC(=O)c2[nH]cnc2N1 | > 100 µM (inactive) | > 100 µM (inactive) | > 100 µM (inactive) | 82.6 µM (inactive) | > 100 µM (inactive) | > 100 µM (inactive) | > 100 µM (inactive) | > 100 µM (inactive) |  | > 100 µM (inactive) | > 100 µM (inactive) | > 100 µM (inactive) | > 100 µM (inactive) | > 100 µM (inactive) | > 100 µM (inactive) | > 100 µM (inactive) | > 100 µM (inactive) | > 100 µM (inactive)
CSCCC(C(=O)O)N(CC1(O)OCC(O)C(O)C1O)N=O (stereo unspecified) | > 100 µM (inactive) | > 100 µM (inactive) | > 100 µM (inactive) | > 100 µM (inactive) | > 100 µM (inactive) | > 100 µM (inactive) |  | > 100 µM (inactive) | > 100 µM (inactive) | > 100 µM (inactive) | > 100 µM (inactive) | > 100 µM (inactive) |  | > 100 µM (inactive) | > 100 µM (inactive) | > 100 µM (inactive) | > 100 µM (inactive) | 
CS(=O)(=O)OCCN1CCN(C(=O)c2cccc3c(Nc4ccc(S(=O)(=O)N=C(N)N)cc4)c4ccccc4nc23)CC1 | > 100 µM (inactive) | > 100 µM (inactive) | > 100 µM (inactive) | > 100 µM (inactive) | > 100 µM (inactive) | > 100 µM (inactive) | > 100 µM (inactive) | > 100 µM (inactive) |  | > 100 µM (inactive) | > 100 µM (inactive) | > 100 µM (inactive) | > 100 µM (inactive) | > 100 µM (inactive) |  | > 100 µM (inactive) | > 100 µM (inactive) | 
CN1C(c2ccccc2)CS(=O)(=O)CS1(=O)=O (stereo unspecified) | > 100 µM (inactive) |  | > 100 µM (inactive) |  |  | > 100 µM (inactive) |  | > 100 µM (inactive) |  | > 100 µM (inactive) |  | > 100 µM (inactive) | > 100 µM (inactive) | > 100 µM (inactive) | > 100 µM (inactive) | > 100 µM (inactive) | > 100 µM (inactive) | 
N#CCC(=O)NC1C2CC3CC(C2)CC1C3 (stereo unspecified) | 19.3 µM (inactive) | 22.8 µM (inactive) | 18.5 µM (inactive) | 26.5 µM (inactive) | 34 µM (inactive) | 20.3 µM (inactive) | 22.2 µM (inactive) | 16.7 µM (inactive) | 17.1 µM (inactive) | 17.5 µM (inactive) | 34.6 µM (inactive) | 15.8 µM (inactive) | 17.7 µM (inactive) | 18 µM (inactive) | 25.4 µM (inactive) | 49 µM (inactive) | 14.6 µM (inactive) | 
CCN(CC)CCCNc1nccc2c(C)c3c(cc12)c1cnccc1n3C | 0.249 µM (active) |  | 0.0101 µM (active) | 0.0211 µM (active) | < 0.01 µM (active) |  |  | 0.0111 µM (active) |  | 0.0692 µM (active) |  |  | 0.294 µM (active) | 0.0173 µM (active) | 0.0233 µM (active) | 0.748 µM (active) | 0.431 µM (active) | 
O=C(NC12CC3CC(CC(C3)C1)C2)C(=O)c1c[nH]c2ccc(Cl)cc12 | 81.8 µM (inactive) | 17.3 µM (inactive) | 3.97 µM (inactive) | 3.8 µM (inactive) | 7.89 µM (inactive) | 34.9 µM (inactive) | 37.4 µM (inactive) | 22.2 µM (inactive) | 85.5 µM (inactive) |  | 19.9 µM (inactive) |  | 49 µM (inactive) | 16.5 µM (inactive) |  | 66.4 µM (inactive) | 42.2 µM (inactive) | 54.5 µM (inactive)
C/C(CC(=O)Nc1cccc([N+](=O)[O-])c1)=N/NC(N)=S | > 100 µM (inactive) | > 100 µM (inactive) | > 100 µM (inactive) | > 100 µM (inactive) | > 100 µM (inactive) | > 100 µM (inactive) | > 100 µM (inactive) | > 100 µM (inactive) | > 100 µM (inactive) | > 100 µM (inactive) | > 100 µM (inactive) | > 100 µM (inactive) | > 100 µM (inactive) | > 100 µM (inactive) | > 100 µM (inactive) | > 100 µM (inactive) | > 100 µM (inactive) | 
N#Cc1c(CC(=O)O)cc(=O)n2c1[nH]c1ccccc12 | > 100 µM (inactive) | > 100 µM (inactive) | > 100 µM (inactive) | > 100 µM (inactive) | > 100 µM (inactive) | > 100 µM (inactive) | > 100 µM (inactive) | > 100 µM (inactive) |  | > 100 µM (inactive) | > 100 µM (inactive) | > 100 µM (inactive) | > 100 µM (inactive) | > 100 µM (inactive) | > 100 µM (inactive) | > 100 µM (inactive) | > 100 µM (inactive) | > 100 µM (inactive)
FC(F)(F)c1ccc2nc(Nc3ccc(Cl)c(Cl)c3)c(-c3ccccc3)nc2c1 | 61.8 µM (inactive) | 8.57 µM (inactive) | 26 µM (inactive) |  | 6.81 µM (inactive) | > 100 µM (inactive) | > 100 µM (inactive) | 7.05 µM (inactive) |  | 21 µM (inactive) | > 100 µM (inactive) | 39.1 µM (inactive) | 14.6 µM (inactive) | 19.4 µM (inactive) | 33.4 µM (inactive) | > 100 µM (inactive) |  | 6.64 µM (inactive)
CC(=O)NNc1nc(C)c(C(/C=C/c2ccc(/C=C/C(=N\NC(=O)c3ccncc3)c3sc(NNC(C)=O)nc3C)cc2)=N/NC(=O)c2ccncc2)s1 | > 100 µM (inactive) | > 100 µM (inactive) | > 100 µM (inactive) | > 100 µM (inactive) | > 100 µM (inactive) | > 100 µM (inactive) | > 100 µM (inactive) | > 100 µM (inactive) |  | > 100 µM (inactive) | > 100 µM (inactive) | > 100 µM (inactive) | > 100 µM (inactive) | > 100 µM (inactive) | > 100 µM (inactive) | > 100 µM (inactive) | > 100 µM (inactive) | 
CCOc1ccccc1N1C(=O)C(=O)C(c2nc3ccccc3o2)C(=O)C1=O | > 100 µM (inactive) | > 100 µM (inactive) | > 100 µM (inactive) | > 100 µM (inactive) | > 100 µM (inactive) | > 100 µM (inactive) | > 100 µM (inactive) |  | > 100 µM (inactive) | 70.5 µM (inactive) | > 100 µM (inactive) |  | > 100 µM (inactive) | > 100 µM (inactive) | > 100 µM (inactive) | 61.5 µM (inactive) | > 100 µM (inactive) | > 100 µM (inactive)
CC(=O)Nc1[nH]c(=O)[nH]c(=O)c1N(C(C)=O)C(C)=O | > 100 µM (inactive) | > 100 µM (inactive) | > 100 µM (inactive) | > 100 µM (inactive) | > 100 µM (inactive) | > 100 µM (inactive) | > 100 µM (inactive) | > 100 µM (inactive) |  | > 100 µM (inactive) | > 100 µM (inactive) | > 100 µM (inactive) | > 100 µM (inactive) | > 100 µM (inactive) | > 100 µM (inactive) | > 100 µM (inactive) | > 100 µM (inactive) | 
O=C1c2ccccc2C(=O)c2cc3c(cc21)C[S+]([O-])C3 | > 100 µM (inactive) | > 100 µM (inactive) | > 100 µM (inactive) | > 100 µM (inactive) | > 100 µM (inactive) | > 100 µM (inactive) |  | > 100 µM (inactive) | > 100 µM (inactive) | > 100 µM (inactive) | > 100 µM (inactive) | > 100 µM (inactive) | > 100 µM (inactive) | > 100 µM (inactive) | > 100 µM (inactive) | > 100 µM (inactive) | > 100 µM (inactive) | 
Clc1cc(Cl)cc(Nc2nc3ccccc3nc2-c2cccs2)c1 | 7.23 µM (inactive) | 25.8 µM (inactive) | 14 µM (inactive) |  | 47.2 µM (inactive) | 39 µM (inactive) | 40 µM (inactive) | 14.3 µM (inactive) |  | 13.3 µM (inactive) | 40 µM (inactive) | 17.1 µM (inactive) | 34 µM (inactive) | 36.1 µM (inactive) | > 100 µM (inactive) | 42.6 µM (inactive) |  | 51.2 µM (inactive)
C=CCC1=C2CCCCC2CCC1=O (stereo unspecified) | > 100 µM (inactive) | > 100 µM (inactive) |  | > 100 µM (inactive) | > 100 µM (inactive) | > 100 µM (inactive) |  | > 100 µM (inactive) | > 100 µM (inactive) | > 100 µM (inactive) | > 100 µM (inactive) | > 100 µM (inactive) | > 100 µM (inactive) | > 100 µM (inactive) | > 100 µM (inactive) | > 100 µM (inactive) | > 100 µM (inactive) | 
O=C(O)CN(c1ccccc1)S(=O)(=O)c1ccc([N+](=O)[O-])cc1 | > 100 µM (inactive) | > 100 µM (inactive) | > 100 µM (inactive) | > 100 µM (inactive) | > 100 µM (inactive) | > 100 µM (inactive) | > 100 µM (inactive) | > 100 µM (inactive) | > 100 µM (inactive) | > 100 µM (inactive) | > 100 µM (inactive) | > 100 µM (inactive) |  | > 100 µM (inactive) | > 100 µM (inactive) | > 100 µM (inactive) | > 100 µM (inactive) | 
